Reference: patent US20250368627A1, “PYRAZOLESULFONAMIDES AS ANTITUMOR AGENTS” (Peloton Therapeutics, Inc., a fully owned subsidiary of …, priority 2019, published 2025)

Assays:
[1] = target: T1, DDB1DB/DCAF15 and RBM39 R1R2 complex (Homo sapiens, UniProt Q14498+Q66K64); assay: DCAF15 RBM39 Complex Formation Assay (FRET); type: binding; settings: FRET ratio Em 665/Em 615, incubated overnight at 4° C.
T1 construct: Amino acids 150 to 331 of RBM39 were cloned into pGEX4T3; GST (from vector pGEX4T3); TEV cleavage site (N); made in house; host or cells: DDB1DB/His-DCAF15: baculovirus/Sf9 co-expression; RBM39 R1R2: E. coli (pGEX4T3)
T1 sequence (Q66K64 whole entry, the tested form may be a part): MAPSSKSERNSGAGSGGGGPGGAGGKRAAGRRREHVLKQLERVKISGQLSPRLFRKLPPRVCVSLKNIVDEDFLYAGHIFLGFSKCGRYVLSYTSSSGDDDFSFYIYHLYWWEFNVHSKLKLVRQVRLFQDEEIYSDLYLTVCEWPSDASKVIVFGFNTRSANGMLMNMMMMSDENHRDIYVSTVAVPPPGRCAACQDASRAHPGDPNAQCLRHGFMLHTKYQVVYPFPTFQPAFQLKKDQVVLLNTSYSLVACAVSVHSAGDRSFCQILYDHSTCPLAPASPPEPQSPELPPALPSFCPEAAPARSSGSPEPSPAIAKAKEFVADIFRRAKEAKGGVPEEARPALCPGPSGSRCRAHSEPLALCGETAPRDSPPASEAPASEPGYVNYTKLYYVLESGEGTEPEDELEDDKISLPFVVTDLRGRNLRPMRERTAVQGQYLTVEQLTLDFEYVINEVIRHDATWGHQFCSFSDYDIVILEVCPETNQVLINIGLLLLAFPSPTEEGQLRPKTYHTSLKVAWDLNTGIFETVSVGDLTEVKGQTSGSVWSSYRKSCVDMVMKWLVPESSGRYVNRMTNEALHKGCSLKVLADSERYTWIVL
T1 sequence (Q14498 150-331): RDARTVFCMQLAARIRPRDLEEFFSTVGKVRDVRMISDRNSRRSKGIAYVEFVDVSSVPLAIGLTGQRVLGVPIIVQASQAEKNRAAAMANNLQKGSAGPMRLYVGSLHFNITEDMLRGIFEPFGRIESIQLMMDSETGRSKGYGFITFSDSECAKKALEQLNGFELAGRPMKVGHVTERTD
T1 sequence (Q16531 with tags, fused parts or gaps DEL396-708 partner): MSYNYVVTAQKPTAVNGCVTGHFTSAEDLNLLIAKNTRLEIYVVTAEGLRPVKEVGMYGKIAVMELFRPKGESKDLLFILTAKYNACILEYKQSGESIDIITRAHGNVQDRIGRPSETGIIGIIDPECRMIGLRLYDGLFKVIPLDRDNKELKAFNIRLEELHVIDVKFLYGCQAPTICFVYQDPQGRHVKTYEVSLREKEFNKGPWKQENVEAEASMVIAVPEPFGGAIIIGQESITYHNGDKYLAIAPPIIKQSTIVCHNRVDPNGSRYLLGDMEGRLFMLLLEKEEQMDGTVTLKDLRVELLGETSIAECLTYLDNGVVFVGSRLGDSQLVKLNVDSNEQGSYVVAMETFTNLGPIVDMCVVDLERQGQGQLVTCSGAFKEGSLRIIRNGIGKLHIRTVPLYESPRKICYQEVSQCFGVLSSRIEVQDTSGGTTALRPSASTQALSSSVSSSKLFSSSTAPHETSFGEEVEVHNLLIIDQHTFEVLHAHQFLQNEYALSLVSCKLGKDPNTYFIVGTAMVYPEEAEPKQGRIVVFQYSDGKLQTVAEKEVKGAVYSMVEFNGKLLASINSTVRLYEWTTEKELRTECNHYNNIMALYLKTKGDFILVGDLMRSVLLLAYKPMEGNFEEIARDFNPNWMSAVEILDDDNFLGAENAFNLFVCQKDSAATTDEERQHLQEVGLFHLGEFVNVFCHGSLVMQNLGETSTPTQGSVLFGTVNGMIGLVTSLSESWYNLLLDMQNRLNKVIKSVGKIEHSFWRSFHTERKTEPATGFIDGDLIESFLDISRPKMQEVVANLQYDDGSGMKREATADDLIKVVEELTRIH
Summary of the method: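 Ternary complex formation read by TR-FRET (Em 665/615, excitation 340 nm) after overnight incubation at 4° C of 20 nM baculovirus DDB1DB/His-DCAF15 and 50 nM E. coli RBM39 RRM1-RRM2 FLAG fragment with 14-point, 3-fold compound dilutions from 1 μM; EC50 from 4-parameter fit.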

[2] = tested on: HCT116 human colorectal carcinoma cells; assay: CellTiter-Glo Luminescent Cell Viability Assay; type: cell-based; settings: HCT-116, 72 h, 3 days
Summary of the method: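 CellTiter-Glo luminescence gave viability after 3 days of compound exposure in HCT116 cells grown in DMEM/10% FBS. Final concentrations ran from 5 to 0.0002 […] in 1:3 steps, each in triplicate, with IC50 derived from the curves.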

| SMILES | IC50 [1] [nM] | EC50 [2] [nM] |
| --- | --- | --- |
| Cc1ccc(NS(=O)(=O)c2cnn([C@@H](CO)C(F)F)c2)c2[nH]cc(C#N)c12 [Compound 227, N-(3-cyano-4-methyl-1H-indol-7-yl)-1-[(1S)-2,2-difluoro-1-(hydroxymethyl)ethyl]pyrazole-4-sulfonamide] | < 250 | 250 to 1000 |
| N#Cc1c[nH]c2c(NS(=O)(=O)c3cnn([C@@H](CO)C(F)F)c3)ccc(F)c12 [Compound 228, N-(3-cyano-4-fluoro-1H-indol-7-yl)-1-[(1S)-2,2-difluoro-1-(hydroxymethyl)ethyl]pyrazole-4-sulfonamide] | < 250 | > 1000 |
| Cc1ccc(NS(=O)(=O)c2cnn(C(C)(C)CCO)c2)c2[nH]cc(C#N)c12 [Compound 229, N-(3-cyano-4-methyl-1H-indol-7-yl)-1-(4-hydroxy-2-methylbutan-2-yl)-1H-pyrazole-4-sulfonamide] | < 250 | < 250 |
| CC(C)(CCO)n1cc(S(=O)(=O)Nc2ccc(Cl)c3c(C#N)c[nH]c23)cn1 [Compound 230, N-(4-chloro-3-cyano-1H-indol-7-yl)-1-(3-hydroxy-1,1-dimethyl-propyl)pyrazole-4-sulfonamide] | < 250 | < 250 |
| Cc1ccc(NS(=O)(=O)c2cnn(C(C)(C)CC(C)(C)O)c2)c2[nH]cc(C#N)c12 [Compound 231, N-(3-cyano-4-methyl-1H-indol-7-yl)-1-(3-hydroxy-1,1,3-trimethyl-butyl)pyrazole-4-sulfonamide] | < 250 | < 250 |
| C[C@@H](O)[C@H](C)n1cc(S(=O)(=O)Nc2ccc(Cl)c3c(C#N)c[nH]c23)cn1 [Compound 232, N-(4-chloro-3-cyano-1H-indol-7-yl)-1-[(1S,2R)-2-hydroxy-1-methyl-propyl]pyrazole-4-sulfonamide] | < 250 | 250 to 1000 |

The next lines start with the values.

| IC50 [1] [nM] | EC50 [2] [nM] | SMILES |
| --- | --- | --- |
| < 250 | 250 to 1000 | C[C@@H](O)[C@H](C)n1cc(S(=O)(=O)Nc2ccc(F)c3c(C#N)c[nH]c23)cn1 [Compound 233, N-(3-cyano-4-fluoro-1H-indol-7-yl)-1-[(1S,2R)-2-hydroxy-1-methyl-propyl]pyrazole-4-sulfonamide] |
| < 250 | < 250 | Cc1ccc(NS(=O)(=O)c2cnn([C@@H](C)[C@@H](C)O)c2)c2[nH]cc(C#N)c12 [Compound 234, N-(3-cyano-4-methyl-1H-indol-7-yl)-1-[(1S,2R)-2-hydroxy-1-methyl-propyl]pyrazole-4-sulfonamide] |
| < 250 | 250 to 1000 | CC(C)(CO)n1cc(S(=O)(=O)Nc2cccc3c(C#N)c[nH]c23)cn1 [Compound 235, N-(3-cyano-1H-indol-7-yl)-1-(2-hydroxy-1,1-dimethyl-ethyl)pyrazole-4-sulfonamide] |
| < 250 | < 250 | Cc1ccc(NS(=O)(=O)c2cnn(C(C)CCO)c2)c2[nH]cc(C#N)c12 (centres unmarked) [Compound 236, N-(3-cyano-4-methyl-1H-indol-7-yl)-1-(3-hydroxy-1-methyl-propyl)pyrazole-4-sulfonamide] |
| < 250 | < 250 | CC(CCO)n1cc(S(=O)(=O)Nc2ccc(Cl)c3c(C#N)c[nH]c23)cn1 (centres unmarked) [Compound 237, N-(4-chloro-3-cyano-1H-indol-7-yl)-1-(3-hydroxy-1-methyl-propyl)pyrazole-4-sulfonamide] |
| < 250 | 250 to 1000 | N#Cc1c[nH]c2c(NS(=O)(=O)c3cnn([C@@H](CO)CF)c3)ccc(Cl)c12 [Compound 238, N-(4-chloro-3-cyano-1H-indol-7-yl)-1-[(1S)-1-(fluoromethyl)-2-hydroxy-ethyl]pyrazole-4-sulfonamide] |
| < 250 | > 1000 | Cc1ccc(NS(=O)(=O)c2cnn(C)c2CCO)c2[nH]cc(C#N)c12 [Compound 239, N-(3-cyano-4-methyl-1H-indol-7-yl)-5-(2-hydroxyethyl)-1-methyl-pyrazole-4-sulfonamide] |
